{"source": "patent US20220096449A1", "about": "“METHOD OF TREATMENT WITH TRADIPITANT” (Vanda Pharmaceuticals Inc., priority 2018, published 2022)", "tested_on": "apomorphine-induced emesis", "assay": "Apomorphine emetic challenge in beagle dogs", "assay_type": "in vivo, beagle dog", "settings": "3.0 mg/kg oral, apomorphine 0.1 mg/kg iv 2 hours later, 5 dogs", "protocol": "Over the five (5) weeks of the study, each animal receives each of the treatments, but only one per week. The purpose of this study is to determine if tradipitant suppresses apomorphine-induced emesis.\nAll animals are dosed over a period of five (5) weeks, with each dog receiving one of five different treatments on each day of dosing.\nAll dogs are fasted overnight prior to each treatment day and then fed approximately one (1) hour after oral dosing (approximately one (1) hour prior to administration of apomorphine). Individual doses are adjusted weekly for changes in body weight.\nThe dose regimen consists of a 5×5 Latin square design, in which each subject receives 1 dose or dose combination per week (6 day washout) as shown in Table 3 below.", "note": "Marks after values point to notes of the source that are not given here."}
{"compound": "C[C@@H](O[C@H]1OCCN(Cc2n[nH]c(=O)[nH]2)[C@H]1c1ccc(F)cc1)c1cc(C(F)(F)F)cc(C(F)(F)F)c1", "note": "[Aprepitant, reference compound]", "values": [{"measurement": "Total No. Emetic Episodes", "value": "1**"}]}
